Patent US6239171A, “Tocotrienols and tocotrienol-like compounds and methods for their use” (Lipogenics, Inc., priority 1998, dated 2001)

Legend:
[1] = test system: hypercholesterolemic swine; assay: Serum cholesterol, apolipoproteins, triglycerides, glucose, insulin and glucagon in hypercholesterolemic swine; assay type: in vivo
Experimental: All assays conducted on chicken or swine serum were done following the protocols described in A. A. Qureshi et al., "Lowering Of Serum Cholesterol In Hypercholesterolemic Humans By Tocotrienols" (Palmvitee), Am. […] Plasma insulin, glucagon and TNF levels were measured using radioinnumoassay kits from Ventrex Laboratories, Inc. (Portland, Me.), ICN Biomedicals, Inc. (Costa Mesa, Calif.) and Genzyme Corp. (Cambridge, Mass.), respectively.
We next measured the effects of various tocotrienols from rice bran on HMG-CoA reductase and cholesterol 7α-hydroxylase in hypercholesterolemic swine. Since pigs are very similar to humans in their cholesterol metabolism, they provide a useful model from which to study hypercholesterolemia and related diseases. […] As a result, the pigs develop complicated atherosclerotic plaques that closely resemble advanced atherosclerotic lesions found in humans.
Each group of three 5-month old swine was administered either a control diet or a control diet supplemented with 50 ppm of TRF or 50 ppm of an individual tocotrienol. […] After a 12 hour fast, serum and plasma samples were taken a 0 hrs, 21 days and 42 days from the start of the feeding period. After taking serum and plasma samples from the pigs at the end of the 42 day period, all of the swine were fasted for a total of 40 hours, followed by a 48 hour refeeding period. One swine from each group was sacrificed at that time and the liver, intestine, lung, heart, loin muscle, adipose tissue and ham muscle were removed.
The experimental conditions were the same, except that the two remaining swine in each group were transferred to the unsupplemented control diet following the 42 day feeding period. After an additional 70 days, serum and plasma samples were collected from these swine after a 12 hour fast for testing.

[2] = test system: chickens; assay: Plasma thromboxane B2 and platelet factor 4 in chickens fed supplemented diets; assay type: in vivo, chicken; conditions: control diet + 50 ppm, 4 weeks
Excerpt: We next measured the effects of TRF and its components on serum levels of apolipoprotein (a)1, apolipoprotein B, triglycerides and glucose and the plasma levels of thromboxane B2 and platelet factor 4.

[3] = target: T1, HMG-CoA reductase (Homo sapiens, UniProt P04035); assay: Hepatic HMG-CoA reductase activity in chickens fed supplemented diets; assay type: in vivo, chicken; conditions: control diet + 50 ppm, 4 weeks
T1 construct: hepatocytes isolated from livers of 8-week old female chickens; endogenous in cells; host or cells: primary chicken hepatocytes
T1 sequence (P04035 1-888): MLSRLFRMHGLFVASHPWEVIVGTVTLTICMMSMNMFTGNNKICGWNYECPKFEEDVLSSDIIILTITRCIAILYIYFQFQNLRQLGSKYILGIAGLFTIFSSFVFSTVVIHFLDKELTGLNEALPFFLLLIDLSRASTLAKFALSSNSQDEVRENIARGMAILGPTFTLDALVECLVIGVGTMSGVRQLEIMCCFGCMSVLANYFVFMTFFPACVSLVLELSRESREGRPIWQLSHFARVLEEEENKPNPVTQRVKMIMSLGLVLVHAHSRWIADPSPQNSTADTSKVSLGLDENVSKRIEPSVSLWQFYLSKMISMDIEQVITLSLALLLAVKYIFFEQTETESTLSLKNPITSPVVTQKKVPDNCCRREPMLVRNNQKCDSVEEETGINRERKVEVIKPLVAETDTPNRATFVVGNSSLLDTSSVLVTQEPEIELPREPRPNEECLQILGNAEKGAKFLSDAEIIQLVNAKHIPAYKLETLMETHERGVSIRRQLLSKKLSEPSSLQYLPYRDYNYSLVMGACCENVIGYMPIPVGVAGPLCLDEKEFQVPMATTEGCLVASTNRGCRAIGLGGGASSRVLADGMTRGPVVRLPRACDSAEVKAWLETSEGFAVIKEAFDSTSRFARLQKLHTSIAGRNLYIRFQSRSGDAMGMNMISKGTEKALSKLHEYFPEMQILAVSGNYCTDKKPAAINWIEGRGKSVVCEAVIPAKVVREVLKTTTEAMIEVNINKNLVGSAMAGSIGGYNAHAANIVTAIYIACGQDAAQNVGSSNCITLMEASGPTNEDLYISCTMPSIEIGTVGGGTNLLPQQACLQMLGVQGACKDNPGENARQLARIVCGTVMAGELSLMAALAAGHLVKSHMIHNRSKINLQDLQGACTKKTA
Experimental: This example measured the effects of the TRF and its components on the hepatic enzymatic activity of HMG-CoA reductase and cholesterol 7α-hydroxylase. […] The amount of feed consumed ranged from 11.19-11.60 g per chicken and the feeding period was 4 weeks. The birds were fasted for a period of 36 hours and refed for 48 hours prior to sacrifice (at 0800 hours).

[4] = 70 days on control diet after 42 days at 50 ppm

CC(C)=CCC/C(C)=C/CC/C(C)=C/CCC1(C)CCc2cc(O)ccc2O1 (stereo not drawn) [P21, 3,4-dihydro-2-methyl-2-(4,8,12-trimethyltrideca-3' (E),7'(E),11'-trienyl)-2H-1-benzopyran-6-ol]
HDL-CHOLESTEROL CONCENTRATION IN SERUM [1, 4]: 31.15 mg/100 ml
HDL-CHOLESTEROL, Percentage of Control Activity [1, 4]: 103.50%
HDL-CHOLESTEROL, percentage of baseline value [1, 4]: 135.72%
HDL:LDL CHOLESTEROL, Percentage of Control Activity [1, 4]: 83.83%
LDL-CHOLESTEROL CONCENTRATION IN SERUM [1, 4]: 227.82 mg/100 ml
LDL-CHOLESTEROL, Percentage of Control Activity [1, 4]: 88.02%
LDL-CHOLESTEROL, percentage of baseline value [1, 4]: 125.11%
TOTAL CHOLESTEROL CONCENTRATION IN SERUM [1, 4]: 276.23 mg/100 ml
TOTAL CHOLESTEROL, Percentage of Control Activity [1, 4]: 76.20%
TOTAL CHOLESTEROL, percentage of baseline value [1, 4]: 125.39%
Apo A1, percentage of control ([1]; control diet + 50 ppm, 6 weeks): 104.01%
Apo A1 concentration in serum ([1]; control diet + 50 ppm, 6 weeks): 26.72 ± 1.14 mg/100 ml
Apo B concentration in serum ([1]; control diet + 50 ppm, 6 weeks): 111.78 ± 1.80 mg/100 ml
Apo B, percentage of control ([1]; control diet + 50 ppm, 6 weeks): 75.64%
Triglycerides concentration in serum ([1]; control diet + 50 ppm, 6 weeks): 64.44 mg/100 ml
Triglycerides, percentage of control ([1]; control diet + 50 ppm, 6 weeks): 84.17%
HDL-CHOLESTEROL CONCENTRATION IN SERUM ([1]; control diet + 50 ppm, 21 days): 26.23 mg/100 ml
HDL-CHOLESTEROL, percentage of baseline value ([1]; control diet + 50 ppm, 21 days): 114.29%
HDL:LDL CHOLESTEROL, percentage of baseline value ([1]; control diet + 50 ppm, 21 days): 93.32%
LDL-CHOLESTEROL CONCENTRATION IN SERUM ([1]; control diet + 50 ppm, 21 days): 194.17 mg/100 ml
LDL-CHOLESTEROL, percentage of baseline value ([1]; control diet + 50 ppm, 21 days): 106.63%
TOTAL CHOLESTEROL CONCENTRATION IN SERUM ([1]; control diet + 50 ppm, 21 days): 236.40 mg/100 ml
TOTAL CHOLESTEROL, percentage of baseline value ([1]; control diet + 50 ppm, 21 days): 107.20%
Glucagon ([1]; control diet + 50 ppm, 42 days): 278.36 pg/mL
Glucagon, percentage of control ([1]; control diet + 50 ppm, 42 days): 84.25%
Glucose ([1]; control diet + 50 ppm, 42 days): 72.63 mg/100 ml
Glucose, percentage of control ([1]; control diet + 50 ppm, 42 days): 75.66%
HDL-CHOLESTEROL CONCENTRATION IN SERUM ([1]; control diet + 50 ppm, 42 days): 30.74 mg/100 ml
HDL-CHOLESTEROL, Percentage of Control Activity ([1]; control diet + 50 ppm, 42 days): 113.90%
HDL-CHOLESTEROL, percentage of baseline value ([1]; control diet + 50 ppm, 42 days): 133.94%
HDL:LDL CHOLESTEROL, Percentage of Control Activity ([1]; control diet + 50 ppm, 42 days): 57.82%
HDL:LDL CHOLESTEROL, percentage of baseline value ([1]; control diet + 50 ppm, 42 days): 81.59%
Insulin ([1]; control diet + 50 ppm, 42 days): 21.4 µU/mL
Insulin, percentage of control ([1]; control diet + 50 ppm, 42 days): 104.63%
LDL-CHOLESTEROL CONCENTRATION IN SERUM ([1]; control diet + 50 ppm, 42 days): 198.76 mg/100 ml
LDL-CHOLESTEROL, Percentage of Control Activity ([1]; control diet + 50 ppm, 42 days): 66.53%
LDL-CHOLESTEROL, percentage of baseline value ([1]; control diet + 50 ppm, 42 days): 109.15%
TOTAL CHOLESTEROL CONCENTRATION IN SERUM ([1]; control diet + 50 ppm, 42 days): 238.17 mg/100 ml
TOTAL CHOLESTEROL, Percentage of Control Activity ([1]; control diet + 50 ppm, 42 days): 68.90%
TOTAL CHOLESTEROL, percentage of baseline value ([1]; control diet + 50 ppm, 42 days): 108.20%
Platelet Factor 4 [2]: 7.76 ng/mL
Platelet Factor 4, percentage of control [2]: 59.28%
Thromboxane B2 [2]: 16.74 pg/mL
Thromboxane B2, percentage of control [2]: 64.78%
HMG-CoA Reductase, percentage of control [3]: 72.83%
